Results on 60 compounds are retold here after patent publication US12534456B2, “Heterocyclyl pyridines as novel fungicides” (Bayer Aktiengesellschaft, priority 2020, dated 2026).

SMILES strings stand for the structures.

The series is described as follows: physchem. The class given is physicochemical. As for the experimental part:
Measurement of Log P values as provided herein was performed according to EEC directive 79/831 Annex V.A8 by HPLC (High Performance Liquid Chromatography) on reversed phase columns with the following methods: • ^[a]
If more than one Log P value is available within the same method, all the values are given and separated by “+”.
Lambda-max-values were determined using UV-spectra from 200 nm to 400 nm and the peak values of the chromatographic signals
As to `FC(F)c1cccc(Oc2cnc(Cl)cc2C2=NOCC(Cc3ccc(Br)cc3Cl)N2)c1` (racemic) [Compound I-004], the LogP was 4.32^[a].

On to `COc1cccc(Oc2cnc(Cl)cc2C2=NOCC(Cc3ccc(C)cc3C)N2)c1` (racemic) [Compound I-005], for which the LogP was 4.18^[a].

In the case of `COc1cccc(Oc2cnc(Cl)cc2C2=NOCC(Cc3ccc(Br)cc3Cl)N2)c1` (racemic) [Compound I-006], the LogP is 4.37^[a].

Regarding `Cc1cccc(Oc2cnc(Cl)cc2C2=NOCC(Cc3ccc(C)cc3C)N2)c1` (racemic) [Compound I-007], the LogP is 4.55^[a].

As to `Cc1cccc(Oc2cnc(C)cc2C2=NOCC(Cc3ccc(C)cc3C)N2)c1` (racemic) [Compound I-008], the LogP is 3.61^[a].

In the case of `COc1cccc(Oc2cnc(C)cc2C2=NOCC(Cc3ccc(C)cc3C)N2)c1` (racemic) [Compound I-009], the LogP is 3.29^[a].

In the case of `Cc1ccc(CC2CON=C(c3cc(C)ncc3Oc3cccc(C(F)F)c3)N2)c(C)c1` (racemic) [Compound I-010], the LogP is 3.41^[a].

On to `Cc1ccc(CC2CON=C(c3cc(Cl)ncc3Oc3cccc(C4CC4)c3)N2)c(C)c1` (racemic) [Compound I-013], for which the LogP was 4.89^[a].

For the compound `Cc1ccc(CC2CON=C(c3cc(Cl)ncc3Oc3cccc(C4CC4)c3F)N2)c(C)c1` (racemic) [Compound I-014], the LogP is 4.89^[a].

As to `Cc1ccc(CC2CON=C(c3cc(C)ncc3Oc3cccc(C4CC4)c3)N2)c(C)c1` (racemic) [Compound I-015], the LogP is 3.94^[a].

As to `Cc1ccc(CC2CON=C(c3cc(C4CC4)ncc3Oc3cccc(C4CC4)c3)N2)c(C)c1` (racemic) [Compound I-016], the LogP was 4.87^[a].

As to `Cc1ccc(CC2CON=C(c3cc(C)ncc3Oc3cccc(C4CC4)c3F)N2)c(C)c1` (racemic) [Compound I-017], the LogP was 4.03^[a].

Consider `Cc1ccc(CC2CON=C(c3cc(C)ncc3Oc3cccc(Cl)c3)N2)c(C)c1` (racemic) [Compound I-018], for which the LogP is 3.76^[a].

Turning to `Fc1c(Oc2cnc(Cl)cc2C2=NOCC(Cc3ccc(Br)cc3Cl)N2)cccc1C1CC1` (racemic) [Compound I-023], the LogP was 5.11^[a].

Consider `Fc1c(Oc2cnc(Cl)cc2C2=NOCC(Cc3ccc(Cl)cc3Cl)N2)cccc1C1CC1` (racemic) [Compound I-024], for which the LogP is 4.98^[a].

With `Clc1ccc(CC2CON=C(c3cc(Cl)ncc3Oc3cccc(C4CC4)c3)N2)c(Cl)c1` (racemic) [Compound I-025], the LogP was 4.98^[a].

For the compound `Clc1cc(C2=NOCC(Cc3ccc(Br)cc3Cl)N2)c(Oc2cccc(C3CC3)c2)cn1` (racemic) [Compound I-026], the LogP is 5.16^[a].

On to `CCc1cc(C2=NOCC(Cc3ccc(C)cc3C)N2)c(Oc2cccc(C3CC3)c2)cn1` (racemic) [Compound I-027], for which the LogP is 4.40^[a].

For `Cc1cc(C2=NOCC(Cc3ccc(Cl)cc3Cl)N2)c(Oc2cccc(C3CC3)c2)cn1` (racemic) [Compound I-028], the LogP is 4.08^[a].

As for `Cc1ccc(CC2CON=C(c3cc(C)ncc3Oc3cccc(C4CC4)c3)N2)c(Cl)c1` (racemic) [Compound I-030], the LogP is 3.98^[a].

Consider `Cc1ccc(CC2CON=C(c3cc(C)ncc3Oc3cccc(C4CC4)c3F)N2)c(Cl)c1` (racemic) [Compound I-031], for which the LogP is 4.08^[a].

For the compound `Cc1ccc(CC2CON=C(c3cc(Cl)ncc3Oc3cccc(C)c3F)N2)c(C)c1` (racemic) [Compound I-032], the LogP was 4.59^[a].

Turning to `Cc1ccc(CC2CON=C(c3cc(C(F)(F)F)ncc3Oc3cccc(C4CC4)c3F)N2)c(C)c1` (racemic) [Compound I-033], the LogP is 5.20^[a].

Turning to `Cc1ccc(CC2CON=C(c3cc(Cl)ncc3Oc3cccc(OC(F)F)c3F)N2)c(C)c1` (racemic) [Compound I-035], the LogP was 4.23^[a].

For `Cc1ccc(CC2CON=C(c3cc(Cl)ncc3Oc3ccc4c(c3)CC4)N2)c(C)c1` (racemic) [Compound I-036], the LogP was 4.88^[a].

With `Cn1cc(-c2ccc(CC3CON=C(c4cc(Cl)ncc4Oc4cccc(C(F)F)c4)N3)c(Cl)c2)cn1` (racemic) [Compound I-037], the LogP is 3.37^[a].

In the case of `CC(=O)c1ccc(CC2CON=C(c3cc(Cl)ncc3Oc3cccc(C(F)F)c3)N2)c(Cl)c1` (racemic) [Compound I-038], the LogP was 3.47^[a].

`C=Cc1ccc(CC2CON=C(c3cc(Cl)ncc3Oc3cccc(C(F)F)c3)N2)c(Cl)c1` (racemic) [Compound I-040]: the LogP is 4.29^[a].

Take `CC1(C)ON=C(c2cc(Cl)ncc2Oc2cccc(C(F)(F)F)c2)NC1c1ccc(F)cc1F` (racemic) [Compound I-043]: the LogP was 4.30^[a].

In the case of `FC(F)(F)c1cccc(Oc2cnc(Cl)cc2C2=NOCC(c3ccc4c(c3)CCO4)N2)c1` (racemic) [Compound I-044], the LogP is 3.57^[a].

Take `COc1ccc(C2CON=C(c3cc(Cl)ncc3Oc3cccc(C(F)(F)F)c3)N2)cc1` (racemic) [Compound I-045]: the LogP is 3.60^[a].

Consider `FC(F)(F)c1cccc(Oc2cnc(Cl)cc2C2=NOCC(C3(c4ccccc4)CC3)N2)c1` (racemic) [Compound I-046], for which the LogP is 4.21^[a].

`Cc1ccc(C2CON=C(c3cc(Cl)ncc3Oc3cccc(C(F)(F)F)c3)N2)cc1` (racemic) [Compound I-048]: the LogP was 3.96^[a].

As to `Cc1ccc(C2CON=C(c3cc(Cl)ncc3Oc3cccc(C(F)(F)F)c3)N2)cc1C` (racemic) [Compound I-049], the LogP was 4.24^[a].

Regarding `FC(F)(F)c1cccc(Oc2cnc(Cl)cc2C2=NOCC(c3ccc(Cl)cc3)N2)c1` (racemic) [Compound I-050], the LogP is 3.99^[a].

For the compound `FC(F)(F)c1cccc(Oc2cnc(Cl)cc2C2=NOCC(c3ccc4c(c3)OCCO4)N2)c1` (racemic) [Compound I-052], the LogP is 3.48^[a].

For `FC(F)(F)c1cccc(Oc2cnc(Cl)cc2C2=NOCC(c3ccc4ccccc4c3)N2)c1` (racemic) [Compound I-053], the LogP is 4.20^[a].

In the case of `FC(F)(F)c1cccc(Oc2cnc(Cl)cc2C2=NOCC(c3ccc4c(c3)CCC4)N2)c1` (racemic) [Compound I-054], the LogP is 4.41^[a].

For the compound `FC(F)(F)Oc1ccc(C2CON=C(c3cc(Cl)ncc3Oc3cccc(C(F)(F)F)c3)N2)cc1` (racemic) [Compound I-055], the LogP is 4.26^[a].

As to `Cc1ccc(CC2CON=C(c3cc(C#N)ncc3Oc3cccc(C(F)(F)F)c3)N2)cc1` (racemic) [Compound I-057], the LogP was 4.12^[a].

With `C=Cc1cc(C2=NOCC(Cc3ccc(C)cc3)N2)c(Oc2cccc(C(F)(F)F)c2)cn1` (racemic) [Compound I-059], the LogP is 4.19^[a].

Regarding `Cc1ccc(CC2CON=C(c3cc(C#C[Si](C)(C)C)ncc3Oc3cccc(C(F)(F)F)c3)N2)cc1` (racemic) [Compound I-060], the LogP is 5.53^[a].

For `CC(=O)c1cc(C2=NOCC(Cc3ccc(C)cc3)N2)c(Oc2cccc(C(F)(F)F)c2)cn1` (racemic) [Compound I-061], the LogP was 4.07^[a].

For the compound `Cc1ccc(CC2CON=C(c3c(Oc4cccc(C(F)(F)F)c4)cnc(Cl)c3F)N2)c(C)c1` (racemic) [Compound I-062], the LogP was 4.66^[a].

As to `Cc1ccc(CC2CON=C(c3cc(Cl)ncc3Oc3ccccc3)N2)c(C)c1` (racemic) [Compound I-063], the LogP is 4.17^[a].

With `CSc1cccc(Oc2cnc(Cl)cc2C2=NOCC(Cc3ccc(C)cc3C)N2)c1` (racemic) [Compound I-064], the LogP was 4.66^[a].

On to `Cc1ccc(CC2CON=C(c3cc(Cl)ncc3Oc3cccc(OC(F)F)c3)N2)c(C)c1` (racemic) [Compound I-065], for which the LogP was 4.38^[a].

In the case of `Cc1ccc(CC2CON=C(c3cc(Cl)ncc3Oc3cccc(C4CC4)c3F)N2)c(Cl)c1` (racemic) [Compound I-066], the LogP was 5.04^[a].

For the compound `COc1cc(C2=NOCC(Cc3ccc(C)cc3Cl)N2)c(Oc2cccc(Cl)c2F)cn1` (racemic) [Compound I-067], the LogP was 4.51^[a].

With `FC(F)(F)c1cccc(Oc2cnc(Cl)cc2C2=NOCC(Cc3csc(C(F)(F)F)c3)N2)c1` (racemic) [Compound I-068], the LogP was 4.40^[a].

As to `Cc1ccc(CC2CON=C(c3cc(C)ncc3Oc3cccc(Cl)c3F)N2)c(Cl)c1` (racemic) [Compound I-069], the LogP was 4.07^[a].

With `FC(F)(F)c1cccc(Oc2cnc(Cl)cc2C2=NOCC(c3ccccc3)N2)c1` (racemic) [Compound I-070], the LogP was 3.64^[a].

With `Fc1cccc(Oc2cnc(Cl)cc2C2=NOCC(Cc3ccc(Cl)cc3Cl)N2)c1F` (racemic) [Compound I-071], the LogP was 4.40^[a].

For `FC(F)(F)c1cc(Oc2cnc(Cl)cc2C2=NOCC(Cc3ccc(Cl)cc3Cl)N2)cs1` (racemic) [Compound I-072], the LogP was 4.75^[a].

`C#Cc1ccc(CC2CON=C(c3cc(C#C)ncc3Oc3cccc(C(F)(F)F)c3)N2)c(C)c1` (racemic) [Compound I-074]: the LogP was 3.75^[a].

For `C#Cc1cccc(Oc2cnc(Cl)cc2C2=NOCC(Cc3ccc(C)cc3C)N2)c1` (racemic) [Compound I-075], the LogP is 4.33^[a].

Consider `Cc1ccc(CC2CON=C(c3cc(Cl)ncc3Oc3ccc(C)c(Cl)c3)N2)c(C)c1` (racemic) [Compound I-076], for which the LogP is 4.97^[a].

With `COC(=O)Cc1cccc(Oc2cnc(Cl)cc2C2=NOCC(Cc3ccc(C)cc3C)N2)c1` (racemic) [Compound I-078], the LogP is 4.08^[a].

Turning to `Cc1ccc(CC2CON=C(c3cc(Cl)ncc3Oc3cccc(Br)c3F)N2)c(Cl)c1` (racemic) [Compound I-079], the LogP was 4.70^[a].

On to `N#Cc1ccc(C2CON=C(c3cc(Cl)ncc3Oc3cccc(C(F)(F)F)c3)N2)cc1` (racemic) [Compound I-080], for which the LogP was 3.30^[a].
